Test results published in patent US20250049758A1, “Danegaptide Formulation for Application in the Eye” (Breye Therapeutics APS, priority 2021, published 2025).
Entries after “also recorded” stand apart in the source; their conditions may differ. Where a name gives a salt, the structure may show the parent alone.

Tests used:
Water solubility = assay type: physicochemical
Text: Danegaptide as a HCL salt is water-soluble. To investigate the viability of this drug, a melt extrusion formulation strategy was chosen, and six different formulations based on various viable excipients feasible for the melt extrusion process were manufactured with approximately 20% drug load.

Toxicology program = assay type: in vivo; conditions: high concentration levels administered locally in selected tissues or systemically
Text: However, the protective effects of danegaptide from stress-induced cell-cell uncoupling or cellular loss may be diminished or lost at higher concentrations of danegaptide.

vascular leakage = conditions: cited from earlier work
[1] = test system: retinal endothelial cell coupling; conditions: in vitro; cited from earlier work
Gap-Junction coupling = test: In vitro and in vivo pre-clinical studies, Gap-Junction coupling under stressed conditions
[2] = Dissolution testing of prototype formulations in 0.9% NaCl at 37° C., HPLC; assay type: physicochemical; conditions: prolonged storage of the dosage form at 37° C.
Method: Described below is the dissolution behavior of Danegaptide when formulated in 6 different melt extrusion formulations. The formulations were manufactured with a drug load of about 20%. The formulations were exposed to physiological salt solutions at 37° C. and stored for several months. The media was changed regularly and analyzed for content of Danegaptide.
The dissolution process was investigated for each of the 6 manufactured prototypes by inserting the prototypes into a 0.9% NaCl solution and test the dissolution of Danegaptide over time by HPLC. The experiment was conducted over 170 days.
Fifteen dose units of each prototype was weighed and were wrapped into a permeable filter bag consisting of empty triangular tea bags made of polymeric material, with a mesh size of less than 0.5 μm. The bags were each inserted into glass vials and 10 ml 0.9% NaCl solution media were added to each vial. The vials were placed in a water bath at 37° C. At regular intervals the media was drained and 10 ml new media was added and the vials were returned to the water bath. […] One day delivery periods were also tested several times during the dissolution period. […] In addition, an informative impurity profile was recorded. In relation to this, the pH value of each collected media sample was determined. […]
The Danegaptide content was quantified to a Danegaptide reference substance. […]

retinal vascular cells = conditions: cited from earlier work

Row | SMILES | Water solubility (Water solubility) | Toxicity (Toxicology program) | Vascular leakage (vascular leakage) | Concentration giving optimal protection from high-glucose induced cell-cell uncoupling [1] [nM] | Optimal concentration in the target tissue, such as the retina, to maintain Gap-Junction coupling (Gap-Junction coupling) [nM] | Degradation of Danegaptide during the dissolution period (HPLC impurity profile) [2] | Cell-cell GJ uncoupling (retinal vascular cells; high glucose condition) | High glucose-induced apoptosis (retinal vascular cells; retinal vascular cells)
1 | NCC(=O)N1C[C@H](NC(=O)c2ccccc2)C[C@H]1C(=O)O [Danegaptide as a HCL salt] | water-soluble | – | – | – | – | – | – | –
2 | NCC(=O)N1C[C@H](NC(=O)c2ccccc2)C[C@H]1C(=O)O [Danegaptide, (2S,4R)-1-(2-aminoacetyl)-4-benzoylamino-pyrrolidine-2-carboxylic acid] | – | no toxicity concerns | reduce vascular leakage | 50 to 100 | 50 to 100 | probably only happened to a smaller extent; also recorded: did not indicate a significant degradation pattern | prevent cell-cell GJ uncoupling | prevent high glucose-induced apoptosis
